Reference: PubChem BioAssay AID330 (DTP/NCI, 2004)
Inconclusive results and toxic doses are left out.

Tested on: P388 leukemia ip, CD2F1 mice, survival T/C
Test: NCI In Vivo Anticancer Drug Screen. Data for tumor model P388 Leukemia (intraperitoneal) in CD2F1 (CDF1) mice
Details: endpoint: median survival time, higher = longer survival
Summary of the method: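 Mice carrying the transplanted tumor received test compound or vehicle. Survival was recorded in each group, and the value is the treated-group measurement divided by that of the vehicle-treated control group.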

[1] = dose: 60.0 mg/kg/injection, schedule: Q01DX005 (ip), vehicle: saline with Tween-80
[2] = dose: 120.0 mg/kg/injection, schedule: Q01DX005 (ip), vehicle: saline with Tween-80
[3] = dose: 240.0 mg/kg/injection, schedule: Q01DX005 (ip), vehicle: saline with Tween-80
[4] = dose: 50.0 mg/kg/injection, schedule: Q01DX005 (ip), vehicle: Klucel (hydroxypropylcellulose) (HPC)
[5] = dose: 100.0 mg/kg/injection, schedule: Q01DX005 (ip), vehicle: Klucel (hydroxypropylcellulose) (HPC)
[6] = dose: 50.0 mg/kg/injection, schedule: Q01DX009 (ip), vehicle: saline with Tween-80
[7] = dose: 100.0 mg/kg/injection, schedule: Q01DX009 (ip), vehicle: saline with Tween-80
[8] = dose: 200.0 mg/kg/injection, schedule: Q01DX009 (ip), vehicle: saline with Tween-80
[9] = dose: 100.0 mg/kg/injection, schedule: Q01DX001 (ip), vehicle: Klucel (hydroxypropylcellulose) (HPC)
[10] = dose: 200.0 mg/kg/injection, schedule: Q01DX001 (ip), vehicle: Klucel (hydroxypropylcellulose) (HPC)
[11] = dose: 400.0 mg/kg/injection, schedule: Q01DX001 (ip), vehicle: Klucel (hydroxypropylcellulose) (HPC)

CC1=CCCCC1=O was tested, and the T/C [1] was 107 % of control, the T/C [2] was 106 % of control and the T/C [3] was 102 % of control.

For O=C(O)CN=C1C=CC(=NCC(=O)O)C=C1, the T/C [4] was 109 % of control and the T/C [5] was 108 % of control.

In the case of CC1=NNC(=O)C1N=Nc1c(C)n(C)n(-c2ccccc2)c1=O (stereo not drawn), the T/C (dose: 50.0 mg/kg/injection, schedule: Q01DX005 (ip), vehicle: saline with Tween-80) is reported as 100 % of control, the T/C (dose: 100.0 mg/kg/injection, schedule: Q01DX005 (ip), vehicle: saline with Tween-80) is reported as 99 % of control and the T/C (dose: 200.0 mg/kg/injection, schedule: Q01DX005 (ip), vehicle: saline with Tween-80) is reported as 100 % of control.

CC1(C)CC(NC(=O)c2ccccc2)C(=O)O1 (stereo not drawn) was tested, and the T/C [6] was 99 % of control, the T/C [7] was 100 % of control and the T/C [8] was 98 % of control.

Nc1cc(=O)[nH]c(=S)n1-c1ccc(Br)cn1 was tested, and the T/C (dose: 100.0 mg/kg/injection, schedule: Q01DX001 (ip), vehicle: saline with Tween-80) was 90 % of control, the T/C (dose: 200.0 mg/kg/injection, schedule: Q01DX001 (ip), vehicle: saline with Tween-80) was 100 % of control and the T/C (dose: 400.0 mg/kg/injection, schedule: Q01DX001 (ip), vehicle: saline with Tween-80) was 90 % of control.

C[n+]1cccc(NC(=O)c2ccc(NC(=O)c3ccc(C(=O)Nc4ccc(NC(=N)N)cc4)cc3)cc2)c1 was tested, and the T/C (dose: 4.7 mg/kg/injection, schedule: Q01DX009 (ip), vehicle: saline) was 110 % of control, the T/C (dose: 9.4 mg/kg/injection, schedule: Q01DX009 (ip), vehicle: saline) was 90 % of control and the T/C (dose: 12.5 mg/kg/injection, schedule: Q04DX003 (ip), vehicle: saline) was 195 % of control.

C/C=C1/C[N+]2([O-])CC[C@@]34c5ccc(OC)cc5N(C)[C@H]3C2CC1C4C(=O)OC (stereo partly drawn) was tested, and the T/C (dose: 2.5 mg/kg/injection, schedule: Q01DX005 (ip), vehicle: Klucel + Tween-80) was 96 % of control, the T/C (dose: 5.0 mg/kg/injection, schedule: Q01DX005 (ip), vehicle: Klucel + Tween-80) was 97 % of control and the T/C (dose: 10.0 mg/kg/injection, schedule: Q01DX005 (ip), vehicle: Klucel + Tween-80) was 98 % of control. For the same molecule, the T/C (dose: 20.0 mg/kg/injection, schedule: Q01DX005 (ip), vehicle: Klucel + Tween-80) was 98 % of control.

In the case of COc1ccc(CC2(OC(C)=O)N=NC(C)(C)O2)cc1 (stereo not drawn), the T/C [4] is reported as 103 % of control, the T/C [5] is reported as 98 % of control and the T/C (dose: 200.0 mg/kg/injection, schedule: Q01DX005 (ip), vehicle: Klucel (hydroxypropylcellulose) (HPC)) is reported as 98 % of control.

Cn1ncc2c(Nc3ccc(F)cc3)c3ccccc3nc21 was tested, and the T/C (dose: 60.0 mg/kg/injection, schedule: Q01DX005 (ip), vehicle: Klucel (hydroxypropylcellulose) (HPC)) was 97 % of control, the T/C (dose: 120.0 mg/kg/injection, schedule: Q01DX005 (ip), vehicle: Klucel (hydroxypropylcellulose) (HPC)) was 95 % of control and the T/C (dose: 240.0 mg/kg/injection, schedule: Q01DX005 (ip), vehicle: Klucel (hydroxypropylcellulose) (HPC)) was 90 % of control.

For c1ccc(C2=NCN3CC23c2ccccc2)cc1 (stereo not drawn), the T/C (dose: 12.5 mg/kg/injection, schedule: Q01DX009 (ip), vehicle: saline with Tween-80) was 98 % of control, the T/C (dose: 25.0 mg/kg/injection, schedule: Q01DX009 (ip), vehicle: saline with Tween-80) was 98 % of control and the T/C [6] was 99 % of control. For the same molecule, the T/C [7] was 95 % of control.

Cc1ccc(OP(=O)(Oc2ccc(C)cc2)Oc2ccc(C)cc2)cc1.Cc1ccc(OP(=O)(Oc2ccc(C)cc2)Oc2ccc(C)cc2)cc1.[Cl][Cr]([Cl])[Cl] was tested, and the T/C [9] was 100 % of control, the T/C [10] was 95 % of control and the T/C [11] was 99 % of control.

Cc1ccc(C2(O)CC3CCC(C2)N3C)cc1 (stereo not drawn) was tested, and the T/C [9] was 103 % of control, the T/C [10] was 110 % of control and the T/C [11] was 101 % of control.

CC(C)(Br)C(=O)N1CCN(C(c2ccccc2)c2ccccc2)CC1 was tested, and the T/C [1] was 92 % of control, the T/C [2] was 91 % of control and the T/C [3] was 89 % of control.

COc1cccc(OC)c1[N+](=O)[O-] was tested, and the T/C [6] was 87 % of control, the T/C [7] was 97 % of control and the T/C [8] was 106 % of control.
